How the values were obtained:
[1] = Example 2: safety (adverse events, blood pressure, clinical laboratory values); assay type: in vivo, human; conditions: for Diastolic BP Change from Baseline Post-treatment / Diastolic BP Change from Baseline Treatment / Systolic BP Change from Baseline Post-treatment / Systolic BP Change from Baseline Treatment: mean ± SD
Protocol: Each patient received 1 of 6 doses of DTI-0009 (0.25, 1.0, 2.5, 4.0, 10.0, or 25.0 μg/kg) diluted in normal saline or normal saline only (control). Study drug was administered as a 30-minute i.v. infusion at a rate of 1 mL/minute. Patients were enrolled in sequential dose groups, beginning with the lowest active dose group and continuing in increasing dose order; the final group received normal saline. The decision to proceed to the next highest dose group was based on the safety response in the previous dose group.
Electrophysiologic (EP), electrocardiogram (ECG), blood pressure measurements, and blood collection for clinical laboratory measurements were performed at baseline (−10 to 0 minutes), during treatment (between 20 and 30 minutes), and at 10 minutes post-treatment.
ECG measurements included PR interval, QRS complex duration, and QT interval. Efficacy was based on changes in EP and ECG parameters from baseline to the treatment period and to post treatment. Safety was based on the incidence of adverse events, blood pressure measurements, and clinical laboratory values.
The incidence of adverse events, blood pressure measurements, and clinical laboratory results were summarized by dose group. Adverse events were coded using the medical dictionary for regulatory activities (MedDRA version 3.0). Safety analyses included all patients who received any duration of study drug infusion.

[2] = system: atrioventricular (AV) node; assay: Example 3: Phase I dose escalation, effects on AV node function; assay type: in vivo, human
Protocol: This study for determining the effects of DTI-0009 on atrioventricular (AV) node function enrolled 63 patients (19 women and 44 men; mean age 54) who were scheduled for a procedure other than AV node or slow pathway ablation. All patients had no greater than a first degree AV block and AV node Wenckebach Cycle Length of less than 500 msec. […] The study was a Phase I, multi-center, open-label, sequential dose escalation using DTI-0009 (0.25 μg/kg, 1.0 μg/kg, 2.5 μg/kg, 4.0 μg/kg, 10.0 μg/kg, and 25.0 μg/kg) or normal saline. Electrophysiologic studies (EPS) were performed at baseline, during infusion (20-30 min) and 10 minutes after discontinuation of DTI-0009 administration.

[3] = system: A1 receptor / A2A receptor; assay: Affinity for adenosine A1 receptor relative to A2A receptor; assay type: binding
Description: Therefore, DTI-0009 may be capable of terminating episodes of supraventricular arrythymias at doses that have little effect on normal heart rate or blood pressure.

## CCNC(=O)[C@H]1O[C@@H](n2cnc3c(NC4CCCC4)ncnc32)[C@H](O)[C@@H]1O [DTI-0009, N^6-cyclopentyl-5′-(N-ethyl)carboxamidoadenosine]
[1]; 0.25 μg/kg (n = 10)
  Adverse Events Related to Study Drug: Cardiac Disorders (all): 0
  Adverse Events Related to Study Drug: General Disorders (all): 0
  Incidence of Adverse Events Related to Study Drug: 0
  Incidence of Adverse Events: Any Adverse Event: 3 (30%)
  Incidence of Adverse Events: Atrial fibrillation: 1 (10%)
  Incidence of Adverse Events: Atrial flutter: 1 (10%)
  Incidence of Adverse Events: Atrial tachycardia: 0
  Incidence of Adverse Events: Bradycardia: 0
  Incidence of Adverse Events: Cardiac Disorders: 2 (20%)
  Incidence of Adverse Events: Chest pain/tightness: 0
  Incidence of Adverse Events: Conduction disorders: 0
  Incidence of Adverse Events: General Disorders: 0
  Incidence of Adverse Events: Groin pain/swelling: 0
[1]; 0.25 μg/kg
  Diastolic BP Change from Baseline Post-treatment: 5.2 ± 9.7 mmHg
  Diastolic BP Change from Baseline Treatment: 2.5 ± 8.1 mmHg
  Systolic BP Change from Baseline Post-treatment: 5.8 ± 9.5 mmHg
  Systolic BP Change from Baseline Treatment: 8.8 ± 8.2 mmHg
[1]; 1.0 μg/kg (n = 10)
  Adverse Events Related to Study Drug: Cardiac Disorders (all): 1 (10%)
  Adverse Events Related to Study Drug: General Disorders (all): 0
  Incidence of Adverse Events Related to Study Drug: 1 (10%)
  Incidence of Adverse Events: Any Adverse Event: 6 (60%)
  Incidence of Adverse Events: Atrial fibrillation: 0
  Incidence of Adverse Events: Atrial flutter: 1 (10%)
  Incidence of Adverse Events: Atrial tachycardia: 0
  Incidence of Adverse Events: Bradycardia: 0
  Incidence of Adverse Events: Cardiac Disorders: 1 (10%)
  Incidence of Adverse Events: Chest pain/tightness: 0
  Incidence of Adverse Events: Conduction disorders: 0
  Incidence of Adverse Events: General Disorders: 1 (10%)
  Incidence of Adverse Events: Groin pain/swelling: 1 (10%)
[1]; 1.0 μg/kg
  Diastolic BP Change from Baseline Post-treatment: 1.0 ± 5.6 mmHg
  Diastolic BP Change from Baseline Treatment: 3.3 ± 9.3 mmHg
  Systolic BP Change from Baseline Post-treatment: 1.4 ± 21.5 mmHg
  Systolic BP Change from Baseline Treatment: −0.1 ± 18.0 mmHg
[1]; 2.5 μg/kg (n = 8)
  Adverse Events Related to Study Drug: Cardiac Disorders (all): 0
  Adverse Events Related to Study Drug: General Disorders (all): 0
  Incidence of Adverse Events Related to Study Drug: 0
  Incidence of Adverse Events: Any Adverse Event: 3 (38%)
  Incidence of Adverse Events: Atrial fibrillation: 1 (13%)
  Incidence of Adverse Events: Atrial flutter: 0
  Incidence of Adverse Events: Atrial tachycardia: 0
  Incidence of Adverse Events: Bradycardia: 0
  Incidence of Adverse Events: Cardiac Disorders: 1 (13%)
  Incidence of Adverse Events: Chest pain/tightness: 1 (13%)
  Incidence of Adverse Events: Conduction disorders: 0
  Incidence of Adverse Events: General Disorders: 2 (25%)
  Incidence of Adverse Events: Groin pain/swelling: 0
[1]; 2.5 μg/kg
  Diastolic BP Change from Baseline Post-treatment: −1.6 ± 9.5 mmHg
  Diastolic BP Change from Baseline Treatment: 0.0 ± 8.4 mmHg
  Systolic BP Change from Baseline Post-treatment: 0.6 ± 9.0 mmHg
  Systolic BP Change from Baseline Treatment: 1.0 ± 6.2 mmHg
[1]; 4.0 μg/kg (n = 10)
  Adverse Events Related to Study Drug: Cardiac Disorders (all): 2 (20%)
  Adverse Events Related to Study Drug: General Disorders (all): 0
  Incidence of Adverse Events Related to Study Drug: 2 (20%)
  Incidence of Adverse Events: Any Adverse Event: 2 (20%)
  Incidence of Adverse Events: Atrial fibrillation: 2 (20%)
  Incidence of Adverse Events: Atrial flutter: 0
  Incidence of Adverse Events: Atrial tachycardia: 0
  Incidence of Adverse Events: Bradycardia: 0
  Incidence of Adverse Events: Cardiac Disorders: 2 (20%)
  Incidence of Adverse Events: Chest pain/tightness: 0
  Incidence of Adverse Events: Conduction disorders: 0
  Incidence of Adverse Events: General Disorders: 0
  Incidence of Adverse Events: Groin pain/swelling: 0
[1]; 4.0 μg/kg
  Diastolic BP Change from Baseline Post-treatment: 0.6 ± 10.5 mmHg
  Diastolic BP Change from Baseline Treatment: 3.3 ± 8.4 mmHg
  Systolic BP Change from Baseline Post-treatment: 5.2 ± 10.2 mmHg
  Systolic BP Change from Baseline Treatment: 3.8 ± 8.4 mmHg
[1]; 10.0 μg/kg (n = 12)
  Adverse Events Related to Study Drug: Cardiac Disorders (all): 6 (50%)
  Adverse Events Related to Study Drug: General Disorders (all): 1 (8%)
  Incidence of Adverse Events Related to Study Drug: 7 (58%)
  Incidence of Adverse Events: Any Adverse Event: 8 (67%)
  Incidence of Adverse Events: Atrial fibrillation: 3 (25%)
  Incidence of Adverse Events: Atrial flutter: 1 (8%)
  Incidence of Adverse Events: Atrial tachycardia: 0
  Incidence of Adverse Events: Bradycardia: 1 (8%)
  Incidence of Adverse Events: Cardiac Disorders: 6 (50%)
  Incidence of Adverse Events: Chest pain/tightness: 1 (8%)
  Incidence of Adverse Events: Conduction disorders: 1 (8%)
  Incidence of Adverse Events: General Disorders: 2 (17%)
  Incidence of Adverse Events: Groin pain/swelling: 0
[1]; 10.0 μg/kg group
  patients with severe adverse events: 1 patient
[1]; 10.0 μg/kg
  Diastolic BP Change from Baseline Post-treatment: −7.2 ± 16.8 mmHg
  Diastolic BP Change from Baseline Treatment: −3.2 ± 11.2 mmHg
  Systolic BP Change from Baseline Post-treatment: −12.6 ± 20.4 mmHg
  Systolic BP Change from Baseline Treatment: −3.2 ± 13.5 mmHg
[1]; 25.0 μg/kg (n = 3)
  Adverse Events Related to Study Drug: Cardiac Disorders (all): 2 (66.7%)
  Adverse Events Related to Study Drug: General Disorders (all): 3 (100%)
  Incidence of Adverse Events Related to Study Drug: 3 (100%)
  Incidence of Adverse Events: Any Adverse Event: 3 (100%)
  Incidence of Adverse Events: Atrial fibrillation: 1 (33%)
  Incidence of Adverse Events: Atrial flutter: 0
  Incidence of Adverse Events: Atrial tachycardia: 1 (33%)
  Incidence of Adverse Events: Bradycardia: 1 (33%)
  Incidence of Adverse Events: Cardiac Disorders: 2 (66.7%)
  Incidence of Adverse Events: Chest pain/tightness: 3 (100%)
  Incidence of Adverse Events: Conduction disorders: 0
  Incidence of Adverse Events: General Disorders: 3 (100%)
  Incidence of Adverse Events: Groin pain/swelling: 0
[1]; 25.0 μg/kg group
  patients with severe adverse events: 2 patients
[1]; 25.0 μg/kg group, chest pain, severe chest pain, chest tightness and atrial fibrillation
  patients who did not complete study drug infusion due to adverse events: Three patients
[1]; 25.0 μg/kg
  Diastolic BP Change from Baseline Post-treatment: 1.0 ± 8.0 mmHg
  Diastolic BP Change from Baseline Treatment: 7.5 ± 2.1 mmHg
  Systolic BP Change from Baseline Post-treatment: 6.7 ± 8.1 mmHg
  Systolic BP Change from Baseline Treatment: 23.0 ± 2.8 mmHg
[1]; any patient during the study
  changes in blood pressure or clinical laboratory values: no clinically significant changes
[2]; 4.0 μg/kg (n = 9), ns
  AERP Change from Baseline: +10 msec (ns)
  AH Interval Change from Baseline: +9 msec (ns)
  AVNERP Change from Baseline: +73 msec (ns)
  Wenkebach Cycle Length Change from Baseline: +60 msec (ns)
[2]; 4.0 μg/kg (n = 9), p = 0.008
  HR at 250 msec pacing Change from Baseline: −49 bpm
[2]; 10.0 μg/kg (n = 8), p = 0.001
  AVNERP Change from Baseline: +248 msec
  HR at 250 msec pacing Change from Baseline: −51 bpm
  Wenkebach Cycle Length Change from Baseline: +198 msec
[2]; 10.0 μg/kg (n = 8), p = 0.004
  AH Interval Change from Baseline: +24 msec
[2]; 10.0 μg/kg (n = 8), p = 0.035
  AERP Change from Baseline: -14 ms
[2]; 10.0 μg/kg dose
  complete heart block: occurred in one patient
[2]; 25.0 μg/kg (n = 2), ns
  AERP Change from Baseline: +10 msec (ns)
  AH Interval Change from Baseline: +14 msec (ns)
[2]; 25.0 μg/kg (n = 2), p = 0.004
  HR at 250 msec pacing Change from Baseline: −45 bpm
[2]; 25.0 μg/kg (n = 2), p = 0.013
  AVNERP Change from Baseline: +185 msec
[2]; 25.0 μg/kg (n = 2), p = 0.035
  Wenkebach Cycle Length Change from Baseline: +140 msec
[2]; 25.0 μg/kg, three patients dosed
  transient, severe, non-ischemic chest pain reported as serious adverse events: two of these patients
[2]; doses up to 2.5 μg/kg
  effects on AV node variables at low doses: negligible effects
[2]; up to a dose of 10.0 μg/kg
  tolerability: well tolerated
[3]
  affinity for the A1 receptor higher than for the A2A receptor: 340 fold

From US20050009776A1, “Method of treating atrial fibrillation or atrial flutter” (Aderis Pharmaceuticals, Inc., priority 2003, published 2005)
